Measurements: publication PMC8836147, “Design, Synthesis and Antifungal/Nematicidal Activity of Novel 1,2,4-Oxadiazole Derivatives Containing Amide Fragments” (International Journal of Molecular Sciences, 2022)
Values after ≈ are worked out from the molar mass of the structure shown.

Key:
MTT cytotoxicity assay = assay type: cell-based; details: human, L-02 normal liver cells, L-02 cells
Method: The human liver L-02 cells were obtained from the biology laboratory in Key Laboratory of Chemistry for Natural Products of Guizhou Province and Chinese Academy of Sciences (Guiyang, China). The cells were grown in Dulbecco’s Modified Eagle’s Medium (supplemented with 10% (v/v) FBS, 100 U/mL penicillin, and 100 μg/mL streptomycin) at 37 °C in a CO2 incubator (5% CO2 and 95% air, 95% humidity). The effect of some compounds on cell viability was determined with the MTT assay according to the previously published literature. A total of 5000 cells were inoculated in a 96-well plate and three wells of each concentration of test compound were used. A total of 24 h after inoculation, the cells had grown to ~60% confluency, and different concentrations of compounds were added, and then the cells were cultured for 48 h. DMSO was used as the control. A total of 20 μL of MTT solution was added to each well and incubated at 37 °C for 4 h. Formazan crystals were dissolved in 150 μL of DMSO and quantified using a microplate reader (Thermo Scientific, Vario Skan Flash, Shanghai Bio-Gene Technology Co., LTD, Shanghai, China) at 490 nm. The cytotoxicity was calculated according to following formula:Cytotoxicity (%) = [(OCK − OT)/OCK] × 100%(2) where OCK represents the optical density (OD) value of the blank control group, and OT represents the OD value of experimental group.

S. sclerotiorum [1] = assay: In vivo curative activity assay on infected cole leaves; parameters: species or system Sclerotinia sclerotiorum; details: sprayed 24 h after inoculation, 72 h
From the text: (§1) Susceptible cole leaves collected from Guizhou Academy of Agricultural Sciences were used to determine the in vivo efficacy of F15 according to previous literature. […] Vaccination time was used to distinguish between the protective activity assays and curative activity assays. A 5 mm mycelia dish was placed at the widest center of the cole leaf, and it was ensured that it was not placed on the main vein of the leaf. For the protective activity assay, test compounds with different concentrations were sprayed on the leaves until the liquid reached the surface. Inoculation was conducted after 24 h. For the curative activity assay, which took place 24 h after inoculation, compounds of different concentrations were sprayed on the surfaces of the leaves until the liquid flowed. Fluopyram and sterile distilled water were used as a positive control and negative control, respectively. All of the inoculated leaves were placed inside of a 25 °C light incubator with 85% relative humidity and a 16 h photoperiod for disease development. The average diameters of the lesions were measured using the cross method after 72 h. The disease control efficacy was obtained through the following formula:Control efficacy (%) = (1 − DT/DCK) × 100%(4) where DCK represents the lesion diameter of the sterile distilled water control, and DT represents the lesion diameters of the treatment samples. Each test was carried out five times, and the experiment was performed three times.

C. elegans = assay: microbe, parasite or virus in culture; details: Caenorhabditis elegans, 48 h, read-out: Corrected Mortality Rate ± SD (%) C. elegans
From the text: (§2) M. incognita (parasitic on tomato plants), A. besseyi (potato dextrose agar–Botrytis cinerea breeding), B. xylophilus (potato dextrose agar–Botrytis cinerea breeding), and C. elegans (nematode growth medium–inactivated Escherichia coli OP50 cultivation) were provided by the Fine Chemical Research and Development Center of Guizhou University (Guizhou, China). The methodology used for the nematocidal bioassays of these target compounds was modified in the light of the conventional methods reported in the previously published literature. The nematicidal activity of the target compounds against four nematodes was determined using 48-well biochemical culture dishes. All of the compounds were dissolved with 100 μL DMF and were diluted with 1% Tween-80 to obtain 200 and 50 μg/mL concentrations for the bioassays. Fosthiazate and tioxazafen were used as positive controls at the same concentrations, and a negative control group was prepared without compounds using the same methodology. An amount of 10 µL of nematode suspension (about 50 nematodes) and 300 µL of the trial solution were added to corresponding hole, and each treatment was set to three repetitions. All of the 48-well plates were placed in a biochemical incubator at 27 °C for dark light culture. […] Corrected mortality (%) = [(mortality of treatment % − mortality of negative control %)/(1 − mortality of negative control %)] × 100%(3)

B. xylophilus = assay: microbe, parasite or virus in culture; details: Bursaphelenchus xylophilus, 48 h, read-out: Corrected Mortality Rate ± SD (%) B. xylophilus
From the text: as §2

M. incognita = assay: microbe, parasite or virus in culture; details: Meloidogyne incognita, 48 h, read-out: Corrected Mortality Rate ± SD (%) M. incognita
From the text: as §2

A. besseyi = assay: microbe, parasite or virus in culture; details: Aphelenchoides besseyi, 48 h, read-out: Corrected Mortality Rate ± SD (%) A. besseyi
From the text: as §2

S. sclerotiorum [2] = assay: In vitro mycelium growth inhibition test; assay type: cell-based; details: Sclerotinia sclerotiorum, mycelial growth, mean ± SD of three replicates
Method: (§3) B. cinerea and S. scleotiorum were kindly provided by the Department of Pesticides, College of Plant Protection, Nanjing Agricultural University (Nanjing, China). All compounds were evaluated for mycelium growth inhibition tests against the two plant pathogenic fungi mentioned in previous reports. These two fungi were inoculated on potato dextrose agar (PDA) plates and were grown in biochemical incubators at 25 ± 1 °C for 2–4 days. The new mycelium was used to determine the antifungal activity. The target compounds were dissolved in 100 µL DMF, and they were then added into the PDA media to make the concentration 50 µg/mL. Mycelia dishes of about 5 mm in diameter were cut from the culture medium. Mycelium were picked up with a sterile inoculation needle, and the sample was inoculated in the middle of a PDA plate in a sterile environment. Afterwards, a preliminary screening of fungal activity was performed. […] Each test was carried out three times. The radial growth of the fungal colonies was gauged and recorded when the diameters of the blank control mycelia reached 5.0–5.5 cm. […] The final data were analyzed using SPSS v.25.0 (IBM, New York, NY, USA). The following formula was used to calculate the fungi inhibition rate. Inhibition rate (%) = [(Mycelium diameter of negative control − Mycelium diameter of treatment)/(Mycelium diameter of negative control − 0.5)] × 100%(1)

B. cinerea = assay: In vitro mycelium growth inhibition test; assay type: cell-based; details: Botrytis cinerea; 50 μg/mL; mycelial growth; mean ± SD of three replicates; read-out: Inhibition Rate (%) B. cinerea
Method: as §3

S. sclerotiorum [3] = assay: In vivo protective activity assay on infected cole leaves; parameters: species or system Sclerotinia sclerotiorum; details: sprayed 24 h before inoculation, 72 h
From the text: as §1

O=C(NCCc1ncc(C(F)(F)F)cc1Cl)c1ccccc1C(F)(F)F [Fluopyram, fluopyram, reference compound]
cytotoxicity at 48 h, 50 μg/mL (MTT cytotoxicity assay; 50 μg/mL): 3.8 ± 2.5%
cytotoxicity at 48 h, 100 μg/mL (MTT cytotoxicity assay; 100 μg/mL): 40.1 ± 1.2%
cytotoxicity at 48 h, 200 μg/mL (MTT cytotoxicity assay; 200 μg/mL): 55.1 ± 0.4%
Curative Effect Control Efficacy (%) (S. sclerotiorum [1]; 25 μg/mL): 65.0%
Curative Effect Lesion Length (S. sclerotiorum [1]; 25 μg/mL): 7.7 ± 0.6 mm
Curative Effect Control Efficacy (%) (S. sclerotiorum [1]; 50 μg/mL): 71.4%
Curative Effect Lesion Length (S. sclerotiorum [1]; 50 μg/mL): 6.3 ± 0.2 mm
Curative Effect Control Efficacy (%) (S. sclerotiorum [1]; 100 μg/mL): 74.1%
Curative Effect Lesion Length (S. sclerotiorum [1]; 100 μg/mL): 5.7 ± 0.6 mm
mortality at 50 µg/mL (C. elegans): 100%
mortality at 200 µg/mL (C. elegans): 100%
mortality at 50 µg/mL (B. xylophilus): 100%
mortality at 200 µg/mL (B. xylophilus): 100%
mortality at 50 µg/mL (M. incognita): 100%
mortality at 200 µg/mL (M. incognita): 100%
mortality at 50 µg/mL (A. besseyi): 100%
mortality at 200 µg/mL (A. besseyi): 100%
inhibition at 50 µg/mL (S. sclerotiorum [2]; 50 μg/mL, read-out: Inhibition Rate (%) S. sclerotiorum): 93.7 ± 1.7%
EC50 (S. sclerotiorum [2]; read-out: EC50 against S. sclerotiorum): 1.2 ± 1.6 µg/mL (≈ 3.02 µM)
inhibition at 50 µg/mL (B. cinerea): 87.3 ± 0.6%
Protective Effect Control Efficacy (%) (S. sclerotiorum [3]; 25 μg/mL): 66.8%
Protective Effect Lesion Length (S. sclerotiorum [3]; 25 μg/mL): 7.9 ± 0.1 mm
Protective Effect Control Efficacy (%) (S. sclerotiorum [3]; 50 μg/mL): 69.3%
Protective Effect Lesion Length (S. sclerotiorum [3]; 50 μg/mL): 7.3 ± 0.2 mm
Protective Effect Control Efficacy (%) (S. sclerotiorum [3]; 100 μg/mL): 75.6%
Protective Effect Lesion Length (S. sclerotiorum [3]; 100 μg/mL): 5.8± 0.1 mm
